Measured values as given in patent publication US9670227B2, “Thienopyrimidine derivatives, a process for their preparation and pharmaceutical compositions containing them” (LES LABORATOIRES SERVIER, priority 2013, dated 2017).
Where two headings read alike, the source gives them in different places.

Assays:
Mcl-1 protein = Mcl-1 protein (UniProtKB primary accession number: Q07820) (Homo sapiens, UniProt Q07820); experiment: Inhibition of Mcl-1 by fluorescence polarisation, Method 1; format: binding; conditions: read-out: IC50 (M) Mcl-1 FP
Mcl-1 protein, sequence (Q07820 whole entry): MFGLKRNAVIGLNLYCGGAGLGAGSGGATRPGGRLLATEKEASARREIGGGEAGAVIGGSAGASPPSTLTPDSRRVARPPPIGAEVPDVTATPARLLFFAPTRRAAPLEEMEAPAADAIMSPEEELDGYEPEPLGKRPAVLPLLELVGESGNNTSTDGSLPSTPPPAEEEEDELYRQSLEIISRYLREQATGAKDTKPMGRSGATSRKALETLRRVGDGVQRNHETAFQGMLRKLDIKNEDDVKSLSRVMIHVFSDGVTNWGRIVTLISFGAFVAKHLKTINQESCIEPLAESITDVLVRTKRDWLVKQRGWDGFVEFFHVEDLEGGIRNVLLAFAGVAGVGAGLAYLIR
In short: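 Compounds were tested as 11-point serial dilutions at 5% final DMSO against 5 nM Mcl-1 with 1 nM fluorescein-labelled ligand in 10 mM HEPES, 150 mM NaCl, 0.05% Tween 20, pH 7.4. Relative binding potency was read by fluorescence polarisation.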

[1] = tested on: H929 multiple myeloma tumour line; experiment: In vitro cytotoxicity, Microculture Tetrazolium Assay; format: cell-based; conditions: Homo sapiens, NCI-H929, 48 h, H929 cells, 48 hours exposure, MTT; read-out: IC50 (μM) MTT H929
Experimental: The cytotoxicity studies were carried out on the H929 multiple myeloma tumour line.
The cells are distributed onto microplates and exposed to the test compounds for 48 hours.

[2] = fluorescence polarisation test, Method 2 values are underlined in the patent (underlining not visible here)
[3] = fluorescence polarisation, Method 1, or Method 2

SMILES | IC50 (Mcl-1 protein; [2]) [M] | IC50 (Mcl-1 protein; [3]) [M] | IC50 [1] [µM]
Cc1c(-c2c(-c3ccc(F)o3)sc3ncnc(OC(Cc4ccccc4OCC(=O)NCCc4ccccc4)C(=O)O)c23)ccc(OCCN2CCN(C)CC2)c1Cl [Example 155, (2R)-2-{[(5Sa)-5-{3-chloro-2-methyl-4-[2-(4-methylpiperazin-1-yl)ethoxy]phenyl}-6-(5-fluorofuran-2-yl)thieno[2,3-d]pyrimidin-4-yl]oxy}-3-(2-{2-oxo-2-[(2-phenylethyl)amino]ethoxy}phenyl)propanoic acid] | 7.6e-09 |  | 0.189
Cc1ccc(-c2nccc(COc3ccccc3CC(Oc3ncnc4sc(-c5ccc(F)cc5)c(-c5ccc(OCCN6CCN(C)CC6)c(Cl)c5C)c34)C(=O)O)n2)cn1 [Example 108, (2R)-2-{[(5Sa)-5-{3-chloro-2-methyl-4-[2-(4-methylpiperazin-1-yl)ethoxy]phenyl}-6-(4-fluorophenyl)thieno[2,3-d]pyrimidin-4-yl]oxy}-3-(2-{[2-(6-methylpyridin-3-yl)pyrimidin-4-yl]methoxy}phenyl)propanoic acid] | 3.5e-09 |  | 0.007
Cc1c(-c2c(-c3ccco3)sc3ncnc(OC(Cc4ccccc4OCc4ccnc(C(F)(F)F)n4)C(=O)O)c23)ccc(OCCN2CCN(C)CC2)c1Cl [Example 248, (2R)-2-{[(5Sa)-5-{3-chloro-2-methyl-4-[2-(4-methylpiperazin-1-yl)ethoxy]phenyl}-6-(furan-2-yl)thieno[2,3-d]pyrimidin-4-yl]oxy}-3-(2-{[2-(trifluoromethyl)pyrimidin-4-yl]methoxy}phenyl)propanoic acid] | 6.9e-09 |  | 0.015
Cc1c(-c2c(-c3ccc(F)o3)sc3ncnc(OC(Cc4ccccc4OCc4ccnn4CC(F)(F)F)C(=O)O)c23)ccc(OCCN(C)C)c1Cl [Example 205, (2R)-2-{[(5Sa)-5-{3-chloro-4-[2-(dimethylamino)ethoxy]-2-methylphenyl}-6-(5-fluorofuran-2-yl)thieno[2,3-d]pyrimidin-4-yl]oxy}-3-(2-{[1-(2,2,2-trifluoroethyl)-1H-pyrazol-5-yl]methoxy}phenyl)propanoic acid] | 3.8e-09 |  | 0.028
Cc1c(-c2c(-c3ccc(F)cc3)sc3ncnc(OC(Cc4ccccc4OCc4ccnc(N5CCN(C)CC5)n4)C(=O)O)c23)ccc(OCCN2CCN(C)CC2)c1Cl [Example 50, (2R)-2-{[(5Sa)-5-{3-chloro-2-methyl-4-[2-(4-methylpiperazin-1-yl)ethoxy]phenyl}-6-(4-fluorophenyl)thieno[2,3-d]pyrimidin-4-yl]oxy}-3-(2-{[2-(4-methylpiperazin-1-yl)pyrimidin-4-yl]methoxy}phenyl)propanoic acid] | 7.6e-09 |  | 0.076
Cc1c(-c2c(-c3ccc(F)cc3)sc3ncnc(OC(Cc4ccccc4OCc4ccc(F)cn4)C(=O)O)c23)ccc(OCCN2CCN(C)CC2)c1Cl [Example 10, (2R)-2-{[(5Sa)-5-{3-chloro-2-methyl-4-[2-(4-methylpiperazin-1-yl)ethoxy]phenyl}-6-(4-fluorophenyl)thieno[2,3-d]pyrimidin-4-yl]oxy}-3-{2-[(5-fluoropyridin-2-yl)methoxy]phenyl}propanoic acid] | 9.7e-09 |  | 0.275
Cc1c(-c2c(-c3ccco3)sc3ncnc(OC(Cc4ccccc4O)C(=O)O)c23)ccc(OCCN2CCN(C)CC2)c1Cl [Example 207, (2R)-2-{[-[(5Sa)-5-{3-chloro-2-methyl-4-[2-(4-methylpiperazin-1-yl)ethoxy]phenyl}-6-(furan-2-yl)thieno[2,3-d]pyrimidin-4-yl]oxy}-3-(2-hydroxyphenyl)propanoic acid] | 6.5e-09 |  | 0.186
Cc1c(-c2c(-c3ccc(F)cc3)sc3ncnc(OC(Cc4ccccc4OCc4ccnc(-n5ccnn5)n4)C(=O)O)c23)ccc(OCCN2CCN(C)CC2)c1Cl [Example 51, (2R)-2-{[(5Sa)-5-{3-chloro-2-methyl-4-[2-(4-methylpiperazin-1-yl)ethoxy]phenyl}-6-(4-fluorophenyl)thieno[2,3-d]pyrimidin-4-yl]oxy}-3-(2-{[2-(1H-1,2,3-triazol-1-yl)pyrimidin-4-yl]methoxy}phenyl)propanoic acid] | 3.5e-09 |  | 0.038
Cc1c(-c2c(-c3ccc(F)o3)sc3ncnc(OC(Cc4ccccc4OCc4ccnc(C(F)(F)F)n4)C(=O)O)c23)ccc(OCCN2CCN(C)CC2)c1Cl [Example 169, (2R)-2-{[(5Sa)-5-{3-chloro-2-methyl-4-[2-(4-methylpiperazin-1-yl)ethoxy]phenyl}-6-(5-fluorofuran-2-yl)thieno[2,3-d]pyrimidin-4-yl]oxy}-3-(2-{[2-(trifluoromethyl)pyrimidin-4-yl]methoxy}phenyl)propanoic acid] | 9e-09 |  | 0.009

Further lines, with some results ahead:

IC50 (Mcl-1 protein; [2]) [M] | IC50 (Mcl-1 protein; [3]) [M] | SMILES | IC50 [1] [µM]
 | 1.1e-07 | CCc1sc2ncnc(OC(Cc3ccccc3)C(=O)O)c2c1-c1cc2nc(CN3CCOCC3)oc2c(Cl)c1C [Example 446, (2R)-2-({(5Sa)-5-[7-chloro-6-methyl-2-(morpholin-4-ylmethyl)-1,3-benzoxazol-5-yl]-6-ethylthieno[2,3-d]pyrimidin-4-yl}oxy)-3-phenylpropanoic acid] | 25.7
 | 4.7e-08 | COc1ccccc1CC(Oc1ncnc2sc(-c3ccc(C)cc3)c(-c3ccc(OCCN4CCN(C)CC4)c(Cl)c3C)c12)C(=O)O [Example 538, (2R)-2-{[(5Sa)-5-{3-chloro-2-methyl-4-[2-(4-methylpiperazin-1-yl)ethoxy]phenyl}-6-(4-methylphenyl)thieno[2,3-d]pyrimidin-4-yl]oxy}-3-(2-methoxyphenyl)propanoic acid] | 0.672
3.2e-09 |  | Cc1c(-c2c(-c3ccc(Cl)o3)sc3ncnc(OC(Cc4ccccc4OCc4ccnc(C(F)(F)F)n4)C(=O)O)c23)ccc(OCCN2CCN(C)CC2)c1Cl [Example 367, (2R)-2-{[6-(5-chlorofuran-2-yl)-(5Sa)-5-{3-chloro-2-methyl-4-[2-(4-methylpiperazin-1-yl)ethoxy]phenyl}thieno[2,3-d]pyrimidin-4-yl]oxy}-3-(2-{[2-(trifluoromethyl)pyrimidin-4-yl]methoxy}phenyl)propanoic acid] | 0.015
 | 4e-09 | CCCCn1nccc1COc1ccccc1CC(Oc1ncnc2sc(-c3ccc(Cl)nc3)c(-c3ccc(OCCN4CCN(C)CC4)c(Cl)c3C)c12)C(=O)O [Example 606, (2R)-3-{2-[(1-butyl-1H-pyrazol-5-yl)methoxy]phenyl}-2-{[(5Sa)-5-{3-chloro-2-methyl-4-[2-(4-methylpiperazin-1-yl)ethoxy]phenyl}-6-(6-chloropyridin-3-yl)thieno[2,3-d]pyrimidin-4-yl]oxy}propanoic acid] | 0.064
 | 4.7e-09 | CCOCCn1nccc1COc1ccccc1CC(Oc1ncnc2sc(-c3ccc(F)cc3)c(-c3ccc(OCCN(C)C)c(Cl)c3C)c12)C(=O)O [Example 754, (2R)-2-{[(5Sa)-5-{3-chloro-4-[2-(dimethylamino)ethoxy]-2-methylphenyl}-6-(4-fluorophenyl)thieno[2,3-d]pyrimidin-4-yl]oxy}-3-(2-{[1-(2-ethoxyethyl)-1H-pyrazol-5-yl]methoxy}phenyl)propanoic acid] | 0.089
 | 1e-07 | Cc1ccc(-c2sc3ncnc(OC(Cc4ccccc4)C(=O)O)c3c2-c2ccc(OCCN3CCN(C)CC3)c(Cl)c2C)o1 [Example 499, (2R)-2-{[(5Sa)-5-{3-chloro-2-methyl-4-[2-(4-methylpiperazin-1-yl)ethoxy]phenyl}-6-(5-methylfuran-2-yl)thieno[2,3-d]pyrimidin-4-yl]oxy}-3-phenylpropanoic acid] | 1.5
 | 5.4e-09 | CCCCn1nccc1COc1ccccc1CC(Oc1ncnc2sc(CCCOC)c(-c3ccc(OCCN4CCN(C)CC4)c(Cl)c3C)c12)C(=O)O [Example 617, (2R)-3-{2-[(1-butyl-1H-pyrazol-5-yl)methoxy]phenyl}-2-{[(5Sa)-5-{3-chloro-2-methyl-4-[2-(4-methylpiperazin-1-yl)ethoxy]phenyl}-6-(3-methoxypropyl)thieno[2,3-d]pyrimidin-4-yl]oxy}propanoic acid] | 0.277
 | 6.2e-09 | COc1nccc(COc2ccccc2CC(Oc2ncnc3sc(-c4ccc(F)c(O)c4)c(-c4ccc(OCCN5CCN(C)CC5)c(Cl)c4C)c23)C(=O)O)n1 [Example 595, (2R)-2-{[(5Sa)-5-{3-chloro-2-methyl-4-[2-(4-methylpiperazin-1-yl)ethoxy]phenyl}-6-(4-fluoro-3-hydroxyphenyl)thieno[2,3-d]pyrimidin-4-yl]oxy}-3-{2-[(2-methoxypyrimidin-4-yl)methoxy]phenyl}propanoic acid] | 0.114
 | 3.7e-09 | CCCCn1nccc1COc1ccccc1CC(Oc1ncnc2sc(-c3ccc(O)cc3)c(-c3ccc(OCCN4CCN(C)CC4)c(Cl)c3C)c12)C(=O)O [Example 602, (2R)-3-{2-[(1-butyl-1H-pyrazol-5-yl)methoxy]phenyl}-2-{[(5Sa)-5-{3-chloro-2-methyl-4-[2-(4-methylpiperazin-1-yl)ethoxy]phenyl}-6-(4-hydroxyphenyl)thieno[2,3-d]pyrimidin-4-yl]oxy}propanoic acid] | 0.156
 | 1.8e-09 | COc1ccccc1CC(Oc1ncnc2sc(-c3cc(F)c(F)c(F)c3)c(-c3ccc(OCCN4CCN(C)CC4)c(Cl)c3C)c12)C(=O)O [Example 523, (2R)-2-{[(5Sa)-5-{3-chloro-2-methyl-4-[2-(4-methylpiperazin-1-yl)ethoxy]phenyl}-6-(3,4,5-trifluorophenyl)thieno[2,3-d]pyrimidin-4-yl]oxy}-3-(2-methoxyphenyl)propanoic acid] | 0.532
